Key:
SU-DHL-4 = experiment: Cell inhibition assay (PrestoBlue, 48 h); assay type: cell-based; details: Homo sapiens, SU-DHL-4, 48 h, SU-DHL-4 diffuse large B-cell lymphoma cells, read-out: IC50, inhibition of growth
Mino = experiment: Cell inhibition assay (PrestoBlue, 48 h); assay type: cell-based; details: Homo sapiens, Mino cells, read-out: IC50, inhibition of growth
[1] = Pharmacokinetics in Sprague-Dawley rats, 2-in-1 dosing; assay type: in vivo; details: rat; for V: intravenous 1 mg/kg
Procedure: Sprague-Dawley rats (approximate weight 275-300 g, N=3) were dosed intravenously at 5 mL/kg and orally at 10 mL/kg with the above dosing solutions. Blood samples were collected into tubes containing EDTA as the anticoagulant at 0, 0.25 (intravenous only), 0.5, 1, 2, 4, 8, 10, and 24 h post-dosing, and plasma samples were prepared by centrifugation. The plasma samples were mixed with 3× volumes of acetonitrile containing 100 nM reserpine as the internal standard, and centrifuged at 4000 RPM for 15 min. The supernatants were injected for LC/MS analysis which were carried out on a AB Sciex 4000 Q Trap LC/MS/MS system coupled with Shimadzu Prominence UFLCXR 20 series (including a CBM-20A controller, two LC-20ADXR solvent delivery units, SIL-20AC HT autosampler, CTO-20A column oven, and a SPD-20A UV detector). The samples were separated on a Phenomenex Columbus column (C18, 4 μm, 50×2 mm) eluted with two solvent systems: 2 mM ammonium acetate in water containing 0.1% formic acid (A) and methanol (B) at a linear gradient starting with 25% B. Electrospray ionization in positive mode was used to acquire LC/MS/MS data.

LYNa = molecular target: T1, LYNa (Homo sapiens, UniProt P07948); experiment: Off-chip Mobility Shift Assay, kinase inhibition; assay type: biochemical
T1 construct: purchased Carna Biosciences, Inc

HCK = molecular target: T2, HCK (Homo sapiens, UniProt P08631); experiment: Off-chip Mobility Shift Assay, kinase inhibition; assay type: biochemical
T2 construct: purchased Carna Biosciences, Inc

ARG = molecular target: T3, ARG (Homo sapiens, UniProt P42684); experiment: Off-chip Mobility Shift Assay, kinase inhibition; assay type: biochemical
T3 construct: purchased Carna Biosciences, Inc

PDGFRβ = molecular target: T4, PDGFRβ (Homo sapiens, UniProt P09619); experiment: Off-chip Mobility Shift Assay, kinase inhibition; assay type: biochemical
T4 construct: purchased Carna Biosciences, Inc

FGR = molecular target: T5, FGR (Homo sapiens, UniProt P09769); experiment: Off-chip Mobility Shift Assay, kinase inhibition; assay type: biochemical
T5 construct: purchased Carna Biosciences, Inc

DDR2 = molecular target: T6, DDR2 (Homo sapiens, UniProt Q16832); experiment: Off-chip Mobility Shift Assay, kinase inhibition; assay type: biochemical
T6 construct: purchased Carna Biosciences, Inc
T6 sequence (Q16832 22-855): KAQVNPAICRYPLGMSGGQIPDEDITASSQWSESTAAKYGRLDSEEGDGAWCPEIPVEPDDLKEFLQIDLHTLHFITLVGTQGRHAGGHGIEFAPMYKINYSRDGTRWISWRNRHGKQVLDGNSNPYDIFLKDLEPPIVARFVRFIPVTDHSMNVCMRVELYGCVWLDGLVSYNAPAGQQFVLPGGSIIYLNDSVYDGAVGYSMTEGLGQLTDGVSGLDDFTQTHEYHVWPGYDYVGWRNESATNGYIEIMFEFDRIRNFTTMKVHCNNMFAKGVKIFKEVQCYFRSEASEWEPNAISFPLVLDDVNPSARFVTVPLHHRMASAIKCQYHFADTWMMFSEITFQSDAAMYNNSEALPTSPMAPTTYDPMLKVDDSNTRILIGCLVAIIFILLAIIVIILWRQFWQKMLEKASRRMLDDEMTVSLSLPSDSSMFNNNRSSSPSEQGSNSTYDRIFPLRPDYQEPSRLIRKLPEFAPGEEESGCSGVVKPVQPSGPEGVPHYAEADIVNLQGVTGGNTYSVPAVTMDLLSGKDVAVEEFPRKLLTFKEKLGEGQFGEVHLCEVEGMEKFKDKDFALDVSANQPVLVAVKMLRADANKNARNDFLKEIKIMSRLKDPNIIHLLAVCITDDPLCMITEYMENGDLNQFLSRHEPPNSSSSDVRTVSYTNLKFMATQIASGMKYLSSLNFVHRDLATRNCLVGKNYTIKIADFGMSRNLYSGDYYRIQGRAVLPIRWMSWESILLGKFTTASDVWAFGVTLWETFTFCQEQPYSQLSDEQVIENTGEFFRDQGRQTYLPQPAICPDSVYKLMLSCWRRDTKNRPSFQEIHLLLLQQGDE

[2] = tested on: battery of selected protein kinases; experiment: In vitro screen of a battery of selected protein kinases (summary statement); assay type: biochemical; details: BTK, BMX, ABL, ABL(E255K), SRC, ACK, ARG, BLK, DDR2, EPHA, FGR, FMS, FRK, FYN, HCK, LCK, LYN, PDGFRα, PDGFRβ, YES, PIK3CA/PIK3R1, among others
PDGFRα = molecular target: T7, PDGFRα (Homo sapiens, UniProt P16234); experiment: Off-chip Mobility Shift Assay, kinase inhibition; assay type: biochemical
T7 construct: purchased Carna Biosciences, Inc

[3] = Table 2, co-dosed with compound IV
[4] = Table 3, co-dosed with compound X

T7 sequence (P16234 24-1089): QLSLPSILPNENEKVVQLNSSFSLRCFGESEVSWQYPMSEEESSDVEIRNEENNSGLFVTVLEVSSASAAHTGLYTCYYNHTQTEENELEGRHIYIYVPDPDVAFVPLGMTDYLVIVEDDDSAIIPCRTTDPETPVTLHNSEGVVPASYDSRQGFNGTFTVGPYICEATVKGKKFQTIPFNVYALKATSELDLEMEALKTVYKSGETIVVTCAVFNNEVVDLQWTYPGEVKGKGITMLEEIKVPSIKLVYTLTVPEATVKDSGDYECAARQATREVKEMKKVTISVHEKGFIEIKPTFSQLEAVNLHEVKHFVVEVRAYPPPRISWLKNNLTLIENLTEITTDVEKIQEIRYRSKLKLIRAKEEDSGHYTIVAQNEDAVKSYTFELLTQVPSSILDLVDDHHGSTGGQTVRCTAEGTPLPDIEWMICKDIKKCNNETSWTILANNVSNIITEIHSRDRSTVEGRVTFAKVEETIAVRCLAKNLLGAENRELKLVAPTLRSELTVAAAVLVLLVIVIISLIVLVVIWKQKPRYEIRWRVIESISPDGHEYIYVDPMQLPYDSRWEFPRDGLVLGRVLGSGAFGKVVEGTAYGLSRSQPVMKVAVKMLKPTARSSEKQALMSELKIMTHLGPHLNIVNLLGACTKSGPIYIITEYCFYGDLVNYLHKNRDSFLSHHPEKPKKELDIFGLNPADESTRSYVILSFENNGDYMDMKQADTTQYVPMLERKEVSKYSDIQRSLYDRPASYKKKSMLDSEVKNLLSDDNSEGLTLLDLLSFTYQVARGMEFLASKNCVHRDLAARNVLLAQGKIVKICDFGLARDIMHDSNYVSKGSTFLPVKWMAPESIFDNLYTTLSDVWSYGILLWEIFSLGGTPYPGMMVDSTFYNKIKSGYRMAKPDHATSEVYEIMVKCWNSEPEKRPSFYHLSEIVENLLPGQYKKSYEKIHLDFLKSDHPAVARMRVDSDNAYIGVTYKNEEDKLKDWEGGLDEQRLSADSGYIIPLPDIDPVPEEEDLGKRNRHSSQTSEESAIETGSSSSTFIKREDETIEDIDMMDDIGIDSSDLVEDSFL
T2 sequence (P08631 whole entry): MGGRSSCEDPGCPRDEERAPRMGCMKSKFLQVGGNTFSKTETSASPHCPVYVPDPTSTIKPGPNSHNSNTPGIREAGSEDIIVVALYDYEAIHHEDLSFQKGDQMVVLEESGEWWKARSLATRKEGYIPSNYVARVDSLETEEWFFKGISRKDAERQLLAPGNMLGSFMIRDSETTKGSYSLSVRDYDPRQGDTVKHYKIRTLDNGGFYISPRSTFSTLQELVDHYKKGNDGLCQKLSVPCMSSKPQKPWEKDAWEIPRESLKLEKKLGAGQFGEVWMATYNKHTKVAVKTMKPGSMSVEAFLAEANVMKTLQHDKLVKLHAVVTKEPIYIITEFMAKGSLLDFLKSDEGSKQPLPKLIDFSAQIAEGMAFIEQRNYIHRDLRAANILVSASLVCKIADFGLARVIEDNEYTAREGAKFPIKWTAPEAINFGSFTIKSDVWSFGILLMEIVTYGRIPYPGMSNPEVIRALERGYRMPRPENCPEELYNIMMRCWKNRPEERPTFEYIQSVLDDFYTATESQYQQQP
T4 sequence (P09619 33-1106): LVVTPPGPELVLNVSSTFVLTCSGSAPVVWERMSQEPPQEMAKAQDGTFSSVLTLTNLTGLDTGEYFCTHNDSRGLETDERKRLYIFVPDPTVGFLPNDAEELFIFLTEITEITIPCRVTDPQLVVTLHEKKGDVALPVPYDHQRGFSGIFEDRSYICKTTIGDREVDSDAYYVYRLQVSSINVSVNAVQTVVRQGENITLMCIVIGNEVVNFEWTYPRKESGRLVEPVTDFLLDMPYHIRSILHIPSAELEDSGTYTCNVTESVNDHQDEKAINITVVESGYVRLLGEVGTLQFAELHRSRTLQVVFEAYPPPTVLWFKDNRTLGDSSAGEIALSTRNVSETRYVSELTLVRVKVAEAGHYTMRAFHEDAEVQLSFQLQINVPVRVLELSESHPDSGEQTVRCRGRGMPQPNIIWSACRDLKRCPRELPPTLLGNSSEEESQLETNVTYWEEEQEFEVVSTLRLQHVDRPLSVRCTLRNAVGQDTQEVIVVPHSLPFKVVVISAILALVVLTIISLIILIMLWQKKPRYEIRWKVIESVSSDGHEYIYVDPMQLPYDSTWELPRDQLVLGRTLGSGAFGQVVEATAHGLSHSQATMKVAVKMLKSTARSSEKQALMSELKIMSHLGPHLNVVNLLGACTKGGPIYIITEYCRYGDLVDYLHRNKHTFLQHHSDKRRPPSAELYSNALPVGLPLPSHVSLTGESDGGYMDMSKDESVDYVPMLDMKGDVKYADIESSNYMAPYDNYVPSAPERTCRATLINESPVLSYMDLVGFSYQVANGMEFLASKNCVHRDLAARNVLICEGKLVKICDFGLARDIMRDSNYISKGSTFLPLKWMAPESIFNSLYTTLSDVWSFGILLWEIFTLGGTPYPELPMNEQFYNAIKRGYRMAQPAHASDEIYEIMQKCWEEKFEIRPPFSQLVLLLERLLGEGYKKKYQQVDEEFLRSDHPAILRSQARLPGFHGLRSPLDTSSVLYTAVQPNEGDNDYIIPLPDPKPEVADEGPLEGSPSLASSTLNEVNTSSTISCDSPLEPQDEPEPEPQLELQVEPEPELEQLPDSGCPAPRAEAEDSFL
T3 sequence (P42684 whole entry): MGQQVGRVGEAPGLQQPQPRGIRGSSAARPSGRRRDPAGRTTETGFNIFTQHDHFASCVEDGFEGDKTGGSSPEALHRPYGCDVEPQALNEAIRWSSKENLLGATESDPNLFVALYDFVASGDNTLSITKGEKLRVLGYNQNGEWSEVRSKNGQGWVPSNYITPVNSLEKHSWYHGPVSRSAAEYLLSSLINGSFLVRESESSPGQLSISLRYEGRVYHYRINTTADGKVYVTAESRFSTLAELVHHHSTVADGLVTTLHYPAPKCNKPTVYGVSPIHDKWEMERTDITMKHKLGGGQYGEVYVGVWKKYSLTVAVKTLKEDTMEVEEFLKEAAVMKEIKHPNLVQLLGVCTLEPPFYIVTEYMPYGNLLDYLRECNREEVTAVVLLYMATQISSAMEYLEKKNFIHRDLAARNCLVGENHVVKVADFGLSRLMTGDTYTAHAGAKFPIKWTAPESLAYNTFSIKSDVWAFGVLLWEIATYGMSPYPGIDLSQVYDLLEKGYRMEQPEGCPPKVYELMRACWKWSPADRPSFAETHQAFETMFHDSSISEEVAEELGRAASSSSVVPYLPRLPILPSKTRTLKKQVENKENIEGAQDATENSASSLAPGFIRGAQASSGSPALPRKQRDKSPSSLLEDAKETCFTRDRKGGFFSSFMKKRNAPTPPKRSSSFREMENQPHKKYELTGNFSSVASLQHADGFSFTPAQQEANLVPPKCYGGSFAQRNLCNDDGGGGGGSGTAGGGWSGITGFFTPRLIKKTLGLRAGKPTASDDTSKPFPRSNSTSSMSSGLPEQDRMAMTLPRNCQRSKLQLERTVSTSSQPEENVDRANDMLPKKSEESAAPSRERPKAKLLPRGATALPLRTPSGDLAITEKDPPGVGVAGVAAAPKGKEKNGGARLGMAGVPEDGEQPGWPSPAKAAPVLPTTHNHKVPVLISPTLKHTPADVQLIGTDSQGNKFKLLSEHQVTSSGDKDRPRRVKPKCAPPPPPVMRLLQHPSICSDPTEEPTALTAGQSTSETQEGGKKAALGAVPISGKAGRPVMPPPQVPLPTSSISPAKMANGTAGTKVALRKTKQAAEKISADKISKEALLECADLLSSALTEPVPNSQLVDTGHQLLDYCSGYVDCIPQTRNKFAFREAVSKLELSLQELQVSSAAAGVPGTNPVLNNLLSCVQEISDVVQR
T1 sequence (P07948 whole entry): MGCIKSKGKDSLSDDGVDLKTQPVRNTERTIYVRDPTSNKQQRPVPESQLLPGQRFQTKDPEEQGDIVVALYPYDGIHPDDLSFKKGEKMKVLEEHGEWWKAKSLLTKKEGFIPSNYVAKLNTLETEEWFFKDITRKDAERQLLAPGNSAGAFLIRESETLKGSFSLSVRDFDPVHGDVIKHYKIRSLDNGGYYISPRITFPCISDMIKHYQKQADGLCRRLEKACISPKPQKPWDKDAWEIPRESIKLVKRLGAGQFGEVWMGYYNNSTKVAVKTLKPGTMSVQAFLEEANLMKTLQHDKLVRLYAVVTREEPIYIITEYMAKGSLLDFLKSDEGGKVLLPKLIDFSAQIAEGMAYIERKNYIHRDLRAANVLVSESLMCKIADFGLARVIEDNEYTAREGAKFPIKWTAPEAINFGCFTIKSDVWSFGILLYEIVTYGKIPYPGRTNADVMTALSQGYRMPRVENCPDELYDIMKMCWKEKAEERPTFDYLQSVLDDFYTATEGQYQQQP
T5 sequence (P09769 whole entry): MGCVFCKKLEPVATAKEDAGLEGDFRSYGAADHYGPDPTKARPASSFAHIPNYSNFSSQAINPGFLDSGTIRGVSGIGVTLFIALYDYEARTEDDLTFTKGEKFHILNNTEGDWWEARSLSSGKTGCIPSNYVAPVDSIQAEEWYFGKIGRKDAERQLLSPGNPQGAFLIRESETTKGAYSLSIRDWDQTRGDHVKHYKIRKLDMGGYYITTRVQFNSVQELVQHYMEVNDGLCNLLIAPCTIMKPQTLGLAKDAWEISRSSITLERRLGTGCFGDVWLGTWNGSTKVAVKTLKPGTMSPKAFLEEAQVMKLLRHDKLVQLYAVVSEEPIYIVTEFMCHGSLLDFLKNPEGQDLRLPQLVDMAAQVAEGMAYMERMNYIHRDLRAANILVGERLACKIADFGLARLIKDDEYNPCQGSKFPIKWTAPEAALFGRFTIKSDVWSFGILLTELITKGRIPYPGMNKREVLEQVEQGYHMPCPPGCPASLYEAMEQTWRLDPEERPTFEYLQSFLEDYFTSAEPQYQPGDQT

Cc1nc(Nc2ncc(C(=O)Nc3c(C)cccc3Cl)s2)cc(N2CCCC2)n1 [Compound XIV, N-(2-chloro-6-methylphenyl)-2-[[2-methyl-6-(pyrrolidin-1-yl)pyrimidin-4-yl]amino]thiazole-5-carboxamide]
IC50 (SU-DHL-4): < 20 nM
IC50 (Mino): < 50 nM

Cc1nc(Nc2ncc(C(=O)Nc3c(C)cccc3Cl)s2)cc(N2CCN(CCO)CC2)n1 [Dasatinib, reference compound]
F, percent oral bioavailability ([1]; PO 5 mg/kg versus intravenous 1 mg/kg, AUCinf dose normalized, Table 3): 3.9±1%
V [1, 3]: 3 ± 0 L/kg
V [1, 4]: 2 ± 0 L/kg

[2H]c1cc(C)c(NC(=O)c2cnc(Nc3cc(N4CCN(CCO)CC4)nc(C)n3)s2)c(Cl)c1 [Compound III]
inhibition at 0.01 µM (LYNa): > 50%
inhibition at 0.01 µM (HCK): > 50%
V [1, 3]: 3 ± 0 L/kg
V [1, 4]: 3 ± 0 L/kg
inhibition at 0.01 µM (ARG): > 50%
inhibition at 0.01 µM (PDGFRβ): > 50%
inhibition at 0.01 µM (FGR): > 50%
inhibition at 0.01 µM (DDR2): > 50%
activity to inhibit kinases [2]: potent activity
inhibition at 0.01 µM (PDGFRα): > 50%
